For data set [1] the following is noted: cited from earlier work.
The next data set relates to GVHD. The following applies: patients who had received Capsase-9+ T cells; cited from earlier work.
The next data set relates to NT CB-NK cells. Kind of data set: Dimerizer effect on non-transduced cells (annexin-V/7AAD staining). The class given is cell-based. The note with it: 10 nM dimerizer. The text has this: iC9/CAR.19/IL15+ CB-NK cells are eliminated after activation of the suicide gene by exposure to a small-molecule dimerizer. To counteract the possibility of excessive toxicity mediated by the release of inflammatory cytokines by transduced CB-NK cells or uncontrolled NK cell growth, we incorporated a suicide gene based on the inducible caspase-9 gene in the construct (Di et al., 2011). […] The suicide gene was also effective in vivo.

For a further data set, the system named is CLL. The note with it: alone or in combination with a corticosteroid; cited from earlier work.
The target of data set [2] is CD19 on CD19+ Raji cells and primary CLL cells (UniProt P15391). Put plainly: cell-based or functional assay.
UniProt P15391, sequence (P15391 20-556 limits assumed): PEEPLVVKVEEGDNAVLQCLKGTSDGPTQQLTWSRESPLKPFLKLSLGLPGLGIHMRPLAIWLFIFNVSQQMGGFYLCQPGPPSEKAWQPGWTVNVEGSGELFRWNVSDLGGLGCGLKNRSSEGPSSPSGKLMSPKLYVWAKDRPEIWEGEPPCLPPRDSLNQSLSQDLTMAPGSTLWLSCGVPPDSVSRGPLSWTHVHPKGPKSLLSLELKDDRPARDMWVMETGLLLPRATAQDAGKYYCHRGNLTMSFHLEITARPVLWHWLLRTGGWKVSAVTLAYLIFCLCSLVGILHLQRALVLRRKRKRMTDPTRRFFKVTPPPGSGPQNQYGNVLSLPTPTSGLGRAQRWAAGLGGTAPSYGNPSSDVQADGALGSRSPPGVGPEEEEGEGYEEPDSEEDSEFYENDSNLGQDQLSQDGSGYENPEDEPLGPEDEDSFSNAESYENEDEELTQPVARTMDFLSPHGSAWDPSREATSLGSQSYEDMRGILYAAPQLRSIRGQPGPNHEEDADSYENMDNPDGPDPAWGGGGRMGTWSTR
The conditions of data set [3]: cited from earlier work. The source holds these as a separate data set.

Read-outs that look alike come from different tables or passages of the source.

`CC[C@H](C(=O)N1CCCC[C@H]1C(=O)O[C@H](CCc1ccc(OC)c(OC)c1)c1cccc(OCC(=O)NCCNC(=O)COc2cccc([C@@H](CCc3ccc(OC)c(OC)c3)OC(=O)[C@@H]3CCCCN3C(=O)[C@@H](CC)c3cc(OC)c(OC)c(OC)c3)c2)c1)c1cc(OC)c(OC)c(OC)c1` [AP1903]: the plasma concentrations in data set [1] (0.01 mg/kg to 1.0 mg/kg dose range) is 0.01 to 1.275 µg/mL. Besides, the entries for the “plasma level, percent of maximum” value in data set [1] (0.5 hrs post dose) and in data set [1] (2 hrs post dose) were 18% and 7%, respectively. The “time to response of GVHD” value in the data set with GVHD was 24 to 48 h. The “viability of NT CB-NK cells” value in the data set on NT CB-NK cells is “no effect”.
With `O=C(O)CCCc1ccc(N(CCCl)CCCl)cc1` [chlorambucil], in the data set on CLL, the complete remission rates is on record as 5-20% and the overall response rate is reported as 50-70%.
In turn, “anti-CD19 chimeric antigen receptor (scFv against CD19, human IgG CH2-CH3 hinge, CD28 transmembrane domain, CD28.CD3zeta signaling endodomain) expressed on cord blood NK cells from the iC9/CAR.19/IL15 retroviral vector” gave an IL15 release in culture supernatant with CD19+ CLL B cells (pg/mL/10^6 cells) in data set [2] of 27.6.
Consider “RhIL-15: exogenous recombinant human IL-15”, for which the “maximum serum concentration (Cmax)” value is recorded as 1,260±350 pg/mL in data set [3] (0.3 μg/kg per day), 15,900±1,900 pg/mL in data set [3] (1.0 μg/kg per day) and 43,800±18,300 pg/mL in data set [3] (3.0 μg/kg per day). The dose-limiting toxicities entry in data set [3] (3.0 and 1.0 μg/kg per day) was “grade 3 hypotension, thrombocytopenia, and elevations of ALT and AST”. In data set [3] (bolus infusions for 12 consecutive days), the maximum-tolerated dose is listed as 0.3 μg/kg per day. Moreover, the immune cell activation entry in data set [3] (patients) is “activate NK cells, monocytes, γδ, and CD8 T cells”.

The record behind these values is US20220325245A1 (Board of Regents, The University of Texas System, priority 2019, published 2022).
